Laboratory results: patent US11351129B2, “Systems and methods for treating vitiligo” (Transdermal Biotechnology, Inc., priority 2016, dated 2022)

Tested on: vitiligo depigmented area of skin
Assay: Two month study of topically applied sodium pyruvate in subjects with vitiligo (photographs, DSMII Colorimeter erythema and melanin, clinical evaluations)
Format: in vivo, human
Settings: for average erythema colorimetric measurement: DSMII Colorimeter, 0.2% phase
From the text: Subjects were 18 years of age and older. A medical history form and this consent statement were provided to them to read, review, and complete. They had no other systemic or dermatological disease present that would interfere with the integrity of this study. Subjects were in good health as determined by the medical history. After all their questions were answered and they decided to participate in the study they were asked to sign the informed consent statement. 5 subjects were studied as follows:
Subjects were dispensed two (2) tubes of test products. One was labeled HNC 180-100-A (0.05%) and the other labeled as HNC 180-100-B (0.1%). Subjects were instructed to use these products sparingly and make applications twice daily, morning, and evening. Applications were made only to the areas designated for treatment.
The sodium pyruvate dosage was increased to 0.2% after the initial eight week study was completed. Subjects were dispensed HNC-180-12 for this phase.
This was a two (2) month study that involved five (5) subjects. Test sessions lasted approximately ½ hour per visit. There were […] scheduled visits. The first was on Day 1 (Baseline), and then at 1, 2, 4, 6 and 8 weeks.
At the end of the 8 weeks all subjects were invited to continue for further study. Four of the subjects elected to continue.
Prior to any study procedures being performed subjects were given an informed consent statement to read, review, and sign. A body map assessment of the vitiligo depigmented area was made and the target areas of treatment were photographed for the baseline record. Colorimetric measurements of the skin were done employing a DSMII Colorimeter. This instrument produced a read-out of erythema and melanin based on the light absorption characteristics of human skin. Subjects reported to the clinic for additional photographs, colorimeter measurements, and clinical evaluations at each scheduled visit.

average erythema colorimetric measurement (week 12): 15.80 arbitrary units
average erythema colorimetric measurement (week 16): 15.71 arbitrary units
SMILES: CC(=O)C(=O)[O-].[Na+] [sodium pyruvate]
increase in pigment in vitiliginous areas, subjects showing it (5 subjects with vitiligo, topical, twice daily, 0.05% and 0.1% for 8 weeks, then 0.2%): 4 out of the 5
irritation (concentration of sodium pyruvate increased to 0.2% after 8 weeks, topical): increased irritation
appearance of vitiligo (topically applied): effective in reducing the appearance of vitiligo
